Assay results published in US9556492B2, “Corn plant MON88017 and compositions and methods for detection thereof” (Monsanto Technology LLC, priority 2003, dated 2017).

Test system: corn rootworm larvae
Test: corn rootworm feeding damage field screen, root damage rated on the Node-Injury Scale
Assay type: in vivo, Diabrotica spp.
Details: Node-Injury Scale 0-3; insecticide treated non-insecticidal protein containing corn plants; 5 ounces per 1000 feet of row; artificially infested plots
Experimental: Transgenic corn plants were assayed for corn rootworm resistance to feeding damage by greenhouse and field screens. Root damage was rated using the Node-Injury Scale (NIS) developed by Oleson and Tollefson of Iowa State University, this scale rates damage done to corn roots using 0-3 values. The 0.00 value describes no feeding damage and is the lowest rating, 1.00 describes one node or the equivalent of an entire node eaten back to within approximately two inches of the stalk, 2.00 describes two complete nodes eaten, and 3.00 describes three or more nodes eaten and is the highest rating. Damage in between complete nodes eaten is noted as the percentage of the node missing, i.e., 1.50 describes 1½ nodes eaten, 0.25 describes ¼ of one node eaten. Field plots were artificially infested with corn rootworm larvae by applying 1500-2000 eggs per linear foot of row at the V3-V4 growth stage. Insecticide treated rows were treated with Tefluthrin insecticide (Force® 3G, Zeneca Ag Products) at a rate of 5 ounces per 1000 feet of row.

With `Cc1c(F)c(F)c(COC(=O)[C@@H]2[C@H](/C=C(\Cl)C(F)(F)F)C2(C)C)c(F)c1F` (racemic) [Tefluthrin] as the compound, how does the “average RDR” value read?
The value was 0.44.
